Results on eight compounds are retold here after patent publication US20160030364A1, “Therapeutic Compositions and Uses Thereof” (MANUKA HEALTH NEW ZEALAND LIMITED, priority 2013, published 2016).

What all share (assay type): cell-based
The subject of test [1] is human gastric carcinoma cell line (NCI-N87). The test can be described thus: MTT anti-proliferative assay, NCI-N87 (Examples 3-12). Conditions: 200 μg/ml; for % stim. / Mean OD (570 nm) / % inhibition: 48 hours; for inhibition at 200 µg/mL: Homo sapiens, NCI-N87, 48 h. The protocol: (§1) 5-phenylpenta-2,4-dienoic acid was assessed for its ability to modulate the viability and proliferation of human colorectal adenocarcinoma cells (DLD-1); human colon cancer cell line (HCT-116); human gastric carcinoma cell line (NCI-N87); and human oesophageal squamous cell carcinoma cell line (KYSE-30) as assessed by the MTT assay. The positive control, 5-fluorouracil (5-FU) was included at three concentrations; in addition to an unsupplemented cell control as a negative control in the study. The 5-phenylpenta-2,4-dienoic acid was a genuine standard with chemical structure confirmed by NMR and MS.
(§2) The four human gastrointestinal carcinoma cell lines were revived from cryostorage and cultured in the presence of the test and reference samples. An MTT assay was then performed on the cultures to determine the effect of the samples on the cell viability and proliferation.
(§3) The test sample 5-phenylpenta-2,4-dienoic acid, and all other test samples in Examples 4-12 (except tectochrysln) were Initially dissolved in pure ethanol to a concentration of around 13.35 mg/ml. Tectochrysin was initially dissolved in triethylene glycol mono-methyl ether to the same concentration. Working solutions were then prepared from the stock solutions by dilution to 15% ethanol/Hanks Balanced Salt Solution (ETOH)/HBSS to a concentration of 2 mg/mL solids. In the assay the final concentration of the samples was 200 μg/ml with a final EtOH concentration of 1.5%. Final concentrations of test compounds and propolis prepared as above are as noted in Example 3.
(§4) • 1. Human colorectal adenocarcinoma cells (ATCC CCI-221, DLD-1)(ATCC, Bethesda, Md., USA) • 2. Human gastric carcinoma cells (ATCC CRL-5822, NCI-N87)(ATCC, Bethesda, Md., USA) • 3. Human oesophageal squamous cell carcinoma (ECACC, KYSE-30)(Sigma Aldrich, Auckland, NZ) • 4. Human colon carcinoma cells (ECACC HCT-116)(Sigma Aldrich, Auckland, NZ) • 5. Penicillin-streptomycin solution: 10000 units/ml penicillin, 10 mg/ml streptomycin in 0.9% NaCl (Sigma Cat #P-0781). Stored at −20° C. • 6. For DLD-1 cells: DMEM culture medium (Invitrogen Cat #12100-046). Stored at 4° C. • 7. For NCI-N87 cells: RPMI-1640 medium modified to contain 2 mM L-glutamine, 10 mM HEPES, 1 mM sodium pyruvate, 4500 mg/L glucose, and 1500 mg/L sodium bicarbonate (Sigma R6504). Stored at 4° C. • 8. For KYSE-410 cells: RPMI-1640 medium modified to contain 2 mM L-glutamine (Sigma R6504). Stored at 4° C. • 9. For HCT-116 cells: McCoy's 5A medium modified to contain 2 mM L-glutamine (Sigma M48792). Stored at 4° C. • 10. Trypsin-EDTA solution: 0.25% Trypsin/EDTA, Invitrogen Cat#15400054 (×10 in stock). • 11. Phosphate buffered saline (PBS) (Prepared by TBL). • 12. Hanks Balanced Salt Solution (HBSS). (GIBCO Cat No. 14185-052). Stored at 4° C. • 13. Foetal Bovine Serum (GIBCO Cat #10091-148). Stored at −20° C. • 14. MTT Reagent: 100 mg/vial, (SIGMA Cat. No. M-2128) dissolved in PBS at 10 mg/ml and stored at −20° C. 5 mg/ml MTT solution will be prepared in PBS and stored at 4° C. as working solution. • 15. MTT lysis buffer: 10% sodium dodecyl sulphate (SDS)/45% Dimethyl Formamide (20 g SDS will be dissolved in 100 ml of double-distilled water (DDW), and 90 ml of Dimethyl Formamide will be added to the SDS solution). The pH will be adjusted to 4.7 by glacial acetic acid, and DDW added up to a final volume of 200 ml. • 16. 5-Fluorouracil (5-FU), (Sigma Cat. No. F-6627). Three working solutions will be prepared at 19.5 μg/ml. 6.5 μg/ml and 1.95 μg/ml dissolved in 15% Ethanol/HBSS. Final concentrations will be 1.95 μg/ml (15 μM), 0.65 μg/ml (5 μM) and 0.195 μg/ml (1.5 μM).
(§5) The medium for the propagation of the each of the cells lines is given above. Each medium was prepared following the ATCC/ECACC instructions and supplemented with penicillin-streptomycin solution (10 ml per litre). FBS (at 10%) was added just before use.
• 1. […]

The test system of test [2] is human oesophageal squamous cell carcinoma cell line (KYSE-30). The test can be described thus: MTT anti-proliferative assay, KYSE-30 (Examples 3-13). As to conditions: Examples 3-12, 200 μg/ml, 48 hours; for inhibition at 200 µg/mL: Homo sapiens, KYSE-30, 48 h. The protocol: as §1, §2, §3, §4, §5
• 1. […]

The test system of test [3] is human colon cancer cell line (HCT-116). The test can be described thus: MTT anti-proliferative assay, HCT-116 (Examples 3-12). As to conditions: 200 μg/ml; for % inhibition / % stim. / Mean OD (570 nm): 48 hours; for inhibition at 200 µg/mL: Homo sapiens, HCT-116, 48 h. Here is the method:
as §1, §2, §3, §4, §5
• 1. […]

The subject of test [4] is human colorectal adenocarcinoma cells (DLD-1). The test can be described thus: MTT anti-proliferative assay, DLD-1 (Examples 3-12). As to conditions: 200 μg/ml; for % stim. / Mean OD (570 nm) / % inhibition: 48 hours; for inhibition at 200 µg/mL: Homo sapiens, DLD-1, 48 h. The protocol:
as §1, §2, §3, §4, §5
• 1. […]

For test [5] the test system is unchanged. The test can be described thus: MTT proliferation assay, DLD-1 (Examples 1-2). As to conditions: Example 2, DLD-1, sample 200 μg/mL, 24 hours incubation; for inhibition at 200 µg/mL: Homo sapiens. Here is the method:
Test samples shown below in Table 2 were assessed for their ability to modulate the viability and proliferation of human colorectal adenocarcinoma cells (DLD-1) as assessed by the MTT assay. A positive control, 5-fluorouracil (5-FU) was included in addition to an unsupplemented cell control (negative control) in the study. The test samples were obtained by fractionation of propolis tincture.
Test samples shown below in Table 2 were assessed for their ability to modulate the viability and proliferation of human colorectal adenocarcinoma cells (DLD-1) as assessed by the MTT assay. A positive control, 5-fluorouracil (5-FU) was included in addition to an unsupplemented cell control (negative control) in the study.
Human colorectal adenocarcinoma epithelial cell lines were revived from cryostorage and cultured in the presence of the test and reference samples. The culture conditions for the cells were those described by the supplier of the cells (ATCC). An MTT assay was then performed on the cultures to determine the effect of the samples on the cell proliferation.
Working solutions were prepared by dissolving the test fractions in 15% ethanol (ETOH)/HBSS to a concentration of 2 mg/mL solids.
• 1. Human colorectal adenocarcinoma cells (ATCC CCI-221, DLD-1). • 2. Penicillin-streptomycin solution: 10000 units/mL penicillin, 10 mg/mL streptomycin in 0.9% NaCl (Sigma Cat #P-0781). Stored at −20° C. • 3. DMEM culture medium (Invitrogen Cat #12100-046) Stored at −20° C. • 4. Trypsin-EDTA solution: 0.25% Trypsin/EDTA, Invitrogen Cat#15400054 (×10 in stock). • 5. Phosphate buffered saline (PBS) (Prepared by TBL). • 6. Hanks Balanced Salt Solution (HBSS). (GIBCO Cat No. 14185-052). Stored at 4° C. • 7. Foetal Bovine Serum (GIBCO Cat #10091-148). Stored at −20° C. • 8. MTT Reagent: 100 mg/vial, (SIGMA Cat. No. M-2128) dissolved in PBS at 10 mg/mL and stored at −20° C. 5 mg/mL MTT solution were prepared in PBS and stored at 4° C. as working solution. • 9. MTT lysis buffer: 10% sodium dodecyl sulphate (SDS)/45% Dimethyl Formamide (20 g SDS was dissolved in 100 mL of double-distilled water (DDW), and 90 mL of Dimethyl Formamide added to the SDS solution). The pH was adjusted to 4.7 by glacial acetic acid, and DDW added up to a final volume of 200 mL. • 10. 5-Fluorouracil (5-FU), (Sigma Cat. No. F-6627). Two working solutions were prepared at 150 ng/mL and 75 ng/mL, dissolved in 15% Ethanol/HBSS. Final concentrations were 7.50 ng/mL and 3.75 ng/mL.
The medium for the propagation of the colorectal adenocarcinoma (DLD-1) cells was DMEM, supplemented with penicillin-streptomycin solution (10 mL per litre). FBS was added just before use to give 10% w/v.
• 1. The human colorectal adenocarcinoma cells (DLD-1) obtained from the American Type Culture Collection USA were revived from cryostorage. • 2. Following initial propagation using the media described above (see Medium Preparation), the culture was subcultured using the trypsin-EDTA as follows. The media was removed and 5 mL of the trypsin-EDTA solution added and incubated at 37° C. for 5 min or until all the cells had detached. The trypsin was neutralised by adding an equal volume of DMEM medium and the culture centrifuged at 300 g (1200 rpm) for 5 min at 4° C. • 3. The supernatant was decanted and the cell pellets resuspended in medium DMEM, FBS (10%), penicillin (100 units/mL), streptomycin (100 μg/mL). The cells were cultured at 37° C. in 5% CO2/95% air. • 4. After reaching confluence, the cells were detached using trypsin-EDTA and centrifuged as described in 2 above. • 5. The supernatants were discarded and the cells resuspended in DMEM and supplements as described in 3 above at 1.0×10^4 cells per mL. • 6. Into each well of three 96 well plates, 180 μl of the cells (1,800 cells/well) or medium was added. The plates were incubated at 5% CO2/95% air at 37° C. for 48 h which was sufficient to allow the cells to adhere. • 7. To each well, 20 μl of each, of the test samples or positive control was added. […]

Where [6] appears, read: listed as Pinobanksin 3-O-acetate.

Take `O=C(O)C=CC=Cc1ccccc1` [5-phenylpenta-2,4-dienoic acid]: in test [1], the “% stim.” value stood at 0%, the “Mean OD (570 nm)” value worked out at 0.2537 and the inhibition at 200 µg/mL was 42.6%. For the same compound, in test [2], the “% inhibition” value worked out at 37.55%, the “% stim.” value is 0%, the “Mean OD (570 nm)” value stood at 0.3758 and testing at 200 µg/mL gave an inhibition of 37.6%. Moreover, in test [3], the “% inhibition” value is 36.43%, the “% stim.” value is listed as 0%, the “Mean OD (570 nm)” value is recorded as 0.3232 and the inhibition at 200 µg/mL turned out to be 36.4%. Also, in test [4], the “% stim.” value is listed as 0%, the “Mean OD (570 nm)” value was 0.2329 and the inhibition at 200 µg/mL came out at 43.5%.

`O=C(/C=C/c1ccc(O)c(O)c1)OCCc1ccccc1` [CAPE, Caffeic acid phenethyl ester]: 200 µg/mL produced 76% inhibition in test [5].

`O=C(O)/C=C/c1ccc(O)c(O)c1` [Caffeic acid]: in test [5], the “Mean OD (570 nm)” value is reported as 0.0113 and the inhibition at 200 µg/mL stood at 96.5%.

`O=c1cc(-c2ccccc2)oc2cc(O)cc(O)c12` [Chrysin] had an inhibition at 200 µg/mL in test [5] of 61.9%.

For the compound `O=c1c(O)c(-c2ccccc2)oc2cc(O)cc(O)c12` [Galangin], the inhibition at 200 µg/mL in test [5] amounted to 56.5%.

Regarding `COc1ccc(/C=C/C(=O)OCc2ccccc2)cc1O` [benzyl isoferulate], in test [1], the “% inhibition” value amounted to 79.95%, the “% stim.” value was determined as 0%, the “Mean OD (570 nm)” value came to 0.0885 and the inhibition at 200 µg/mL amounted to 80%. In test [2], the “% inhibition” value is on record as 95.82%, the “% stim.” value was 0%, the “Mean OD (570 nm)” value is 0.0251 and the inhibition at 200 µg/mL amounted to 95.8%. For the same compound, in test [3], the “% inhibition” value was found to be 94.81%, the “% stim.” value worked out at 0%, the “Mean OD (570 nm)” value was determined as 0.0264 and testing at 200 µg/mL gave an inhibition of 94.8%. Further, in test [4], the “% inhibition” value was found to be 90.81%, the “% stim.” value is given as 0%, the “Mean OD (570 nm)” value came to 0.0379 and 200 µg/mL produced 90.8% inhibition.

In the case of `CC(=O)O[C@H]1C(=O)c2c(O)cc(O)cc2O[C@@H]1c1ccccc1` [pinobanksin 3-O-acetate, pinobanksin-3-acetate], the “% inhibition” value in test [1] was found to be 48.22%; in test [1] (setting [6]) it was 48.2%; in test [2] it was 68.01%; in test [2] (setting [6]) it was 68.0%; in test [3] it was 90.61%; in test [3] (setting [6]) it was 90.6%. Also, the “% inhibition” value in test [4] (setting [6]) amounted to 75.4%. The “% stim.” value in test [1], in test [2], in test [3] and in test [4] was 0% in each case. Besides, the “Mean OD (570 nm)” value in test [1] is given as 0.2287; in test [3], 0.0477.

`COc1cc(O)c(C(=O)/C=C/c2ccccc2)c(O)c1` [pinostrobin chalcone]: the “% stim.” value was found to be 5.5% in test [1], 0% in test [2], 0% in test [3] and 0% in test [4]. The “Mean OD (570 nm)” value amounted to 0.4659 in test [1], 0.3312 in test [2], 0.2482 in test [3] and 0.069 in test [4]. Besides, the results for the “% inhibition” value in test [2], in test [3] and in test [4] were 45.0%, 51.2% and 83.3%, respectively.
